From patent US20110082197A1, “Method for inhibiting formation and/or activation of osteoclasts using flemingia macrophylla extract or lespedeza flavanone A” (CHINA MEDICAL UNIVERSITY, priority 2009, published 2011)

Experiments:
osteoclast precursors = experiment: Differentiation test of osteoclasts (RANKL/M-CSF induced, TRAP staining); format: cell-based, Wistar rats; conditions: for effect of ICI 182,780 on the inhibition of osteoclast formation: 1 nM ICI 182,780 (antagonist of estrogen receptors), result in words
Description: Bone marrow was taken out from the femurs and tibiae of Wistar rats, and bone marrow cavities were washed with a α-minimum essential medium (Hyclone, Logan, Utah, USA) comprising a 20 mmol HEPES buffer solution, 10 vol % heat-inactivated fetal bovine serum, 2 mmol glutamine, 100 U/ml penicillin, and 100 µg/ml streptomycin. After 24 hours, inadhesive hematopoietic cells that were washed were collected, and were used as osteoclast precursors.
The aforesaid precursor cells were incubated in 24-wells culture plates with a density of 1×10^6 cells/well, and the culture plates comprised soluble human recombinant RANKL (50 ng/ml, PeproTech EC, London, UK) and M-CSF (20 ng/ml, PeproTech EC). Under the induction of M-CSF and RANKL, the precursor cells may differentiate into osteoclasts.
Then, various concentrations of the Flemingia macrophylla extract or Lespedeza flavanone A were added into the culture plates, and culture medium was replaced once every 3 days. On the ninth day, osteoclasts were stained with a TRAP staining kit, and the formation of osteoclasts was observed. The cells were then fixed with 10 vol % formaldehyde (in a phosphate buffer solution) for three minutes, and were stained with Naphthol AS-Mx phosphate and a tartaric acid solution at 37° C. for 1 hour. TRAP-positive multinucleated osteoclasts with more than three nuclei were regarded as osteoclasts (see Asagiri et al., The molecular understanding of osteoclast differentiation, Bone, 2007, 40: 251-64, which is entirely incorporated hereinto by reference).
To clarify the mechanism of Lespedeza flavanone A, an experiment was carried out with 1 nM ICI 182,780 (an antagonist of estrogen receptors) (see Howell et al., ICI 182,780 (Faslodex): development of a novel, “pure” antiestrogen, Cancer, 2000, 89: 817-825, which is entirely incorporated hereinto by reference), and influence of ICI 182,780 on the formation of osteoclasts was observed, and 10 nM 17β-estradiol was used for comparison.

OVX rats [1] = experiment: Body weight and vagina weight of ovariectomized rats after 13 weeks of oral administration; format: in vivo, Wistar rats; conditions: alendronate 2.5 mg/kg-body weight per day
Description: (§1) Female Wistar rats (BioLASCO, Taipei, Taiwan) were used in the following experiments. In an experiment group, the rats were anesthetized with 40 mg/kg-body weight of pentobarbital sodium, and ovaries in both sides of the dorsum of the rats were removed to induce osteoporosis, and a decrease in estrogen of the postmenopausal female rats was observed. The rats of which ovaries were removed (i.e., ovariectomized rat) are represented as “OVX rats” hereinafter. In the control group (i.e., a sham group), the skin and muscle on the ovary positions at both sides of the dorsum of the rats were incised and then sutured, while the ovaries were not removed.
(§2) After one week from the surgery, the control group was administrated water orally every day. […] During the administration, the body weight of each rat was measured once a week until the last day of the administration. Distilled water was added into the extract to form a suspension, and the rats were administrated orally with 1 ml/100 g-body weight of the suspension.
After the end of the administration in Example 2, the rats were anesthetized with a high dosage of pentobarbital sodium (65 mg/kg-body weight) and were sacrificed. Blood samples of the rats were then collected, and tibiae and vertebrae of the rats were dissected, and vaginas were taken out from the rats and the weight of the vaginas was measured.

OVX rats [2] = experiment: Density and content of minerals in tibiae (dual-energy X-ray absorptiometer); format: in vivo, Wistar rats; conditions: oral, alendronate 2.5 mg/kg-body weight per day, 13 weeks
Description: Female Wistar rats (BioLASCO, Taipei, Taiwan) were used in the following experiments. […] The rats of which ovaries were removed (i.e., ovariectomized rat) are represented as “OVX rats” hereinafter. In the control group (i.e., a sham group), the skin and muscle on the ovary positions at both sides of the dorsum of the rats were incised and then sutured, while the ovaries were not removed.

OVX rats [3] = experiment: Weight ratio of bone ash and calcium content of fifth vertebra; format: in vivo, Wistar rats; conditions: bone ash, per bone volume, oral, alendronate 2.5 mg/kg-body weight per day, 13 weeks
Description: as §1, §2
The fifth sections of the vertebrae of the rats in Example 3 were dissected in an ethanol bath and dried at 100° C. overnight, and the dry weight of the vertebrae was measured. […] After the cremation, bone ash was collected, and the weight ratio of the bone ash (represented as the percentage of the dry weight of the vertebrae) was measured. […]

OVX rats [4] = experiment: Tissue analysis of tibiae (H&E, TRAP staining); format: in vivo, Wistar rats; conditions: oral, alendronate 2.5 mg/kg-body weight per day, 13 weeks
Description: as §1, §2
The left tibiae of the rats in Example 3 were taken and fixed with 4 vol % metaformaldehyde (in a phosphate buffer solution, PBS, pH 7.4) for 48 hours, and calcium was removed in a solution (pH 7.4) of 10 wt % EDTA (ethylenediamine tetraacetic acid) at 4° C. for 4 weeks. After calcium was removed, the bones were cut to generate a cross-section, and tissue staining was carried out with hematoxylin and eosin. […] The microscope images were analyzed with a color image analysis system (Image-Pro Plus version 5.1, Media Cybernetics, Maryland, USA), and the volume of trabecular bones and the thickness of […] of metaphysis of the rats were measured. […]
In another aspect, the above cross-section was stained with a TRAP (tartrate-resistant acid phosphatase) kit (Sigma-Aldrich, St. Louis, Mo., USA), and the number of osteoclasts was measured (see Cole et al., Tartrate-resistant acid phosphatase in bone and cartilage following decalcification and cold-embedding in plastic. J Histochem Cyrochem, 1987: 35, 203-6, which is entirely incorporated hereinto by reference).

OVX rats [5] = experiment: Biochemical values of blood and urine (ALP, calcium, DPD); format: in vivo, Wistar rats; conditions: oral, alendronate 2.5 mg/kg-body weight per day, 13 weeks
Description: as §1, §2
The activity of ALP (alkaline phosphatase) and the content of calcium and creatinine in the blood and urine of the rats were measured with a clinical trial kit (Roche Diagnostics, Mannheim, Germany) and a spectrophotometric analyzer (Cobas Mira Plus, Roche, Rotkreuz, Switzerland), and the calcium content in the urine and blood of the rats was also measured with a method using o-cresolphthalein complexone (Randox, UK). ALP is a bio-indicator or molecular marker of an early activation stage of preosteoblasts, and based on ALP activity, the activation situation of preosteoblasts can be observed. The calcium content in the urine is represented as “mg/mmol creatinine in the urine.”
Moreover, the content of deoxypyridinoline (DPD) in the urine was measured with ELISA (enzyme linked immunosorbent assay) (an ELISA kit is purchased from Metra, San Diego, Calif., USA), and is represented as “[…] creatinine in the urine.” The results are shown in Table 5. […]

| Structure (SMILES) | effect of ICI 182,780 on the inhibition of osteoclast formation (osteoclast precursors) | the percentage of osteoclast formation (osteoclast precursors; 10.0 nM with ICI 182,780 (1 nM), day 9) | the percentage of osteoclast formation (osteoclast precursors; 10.0 nM, day 9, control = 100) | the percentage of osteoclast formation (osteoclast precursors; 0.1 μM with ICI 182,780 (1 nM), day 9) | the percentage of osteoclast formation (osteoclast precursors; 0.1 μM, day 9, control = 100) | the percentage of osteoclast formation (osteoclast precursors; 1.0 μM with ICI 182,780 (1 nM), day 9) | the percentage of osteoclast formation (osteoclast precursors; 1.0 μM, day 9, control = 100) | the percentage of osteoclast formation (osteoclast precursors; 10.0 μM with ICI 182,780 (1 nM), day 9) | the percentage of osteoclast formation (osteoclast precursors; 10.0 μM, day 9, control = 100) | average body weight after 13 weeks from the surgery (OVX rats [1]) | average vagina weight (OVX rats [1]) | mineral content (OVX rats [2]) | calcium content (OVX rats [3]) | osteoclast number/bone surface (OVX rats [4]; TRAP staining, tibia) | thickness of dermal bones (OVX rats [4]; tibia metaphysis) | trabecular bone volume/tissue volume (OVX rats [4]; tibia metaphysis) | DPD content in urine (OVX rats [5]; ELISA) | ALP (OVX rats [5]; blood serum) | calcium content in urine (OVX rats [5]) |
| --- | --- | --- | --- | --- | --- | --- | --- | --- | --- | --- | --- | --- | --- | --- | --- | --- | --- | --- | --- |
| C[C@]12CC[C@@H]3c4ccc(O)cc4CC[C@H]3[C@@H]1CC[C@@H]2O [17β-estradiol] | clearly inhibited the inhibition effect | 83.0 ± 13.2 % | 57.7 ± 8.1 % |  |  |  |  |  |  |  |  |  |  |  |  |  |  |  |  |
| COc1ccc([C@@H]2CC(=O)c3c(O)c(CC=C(C)C)c(O)c(CC=C(C)C)c3O2)c(O)c1 [LDF-A, 5,7,2-trihydroxy-6,8-di-r,r-dimethylallyl-4-methoxyflavanone] | did not inhibit the inhibition effect |  |  | 65.0 ± 11.5% | 70.7 ± 9.5 % | 49.0 ± 6.2% | 60.0 ± 5.2 % | 26.0 ± 8.9% | 27.0 ± 2.6 % |  |  |  |  |  |  |  |  |  |  |
| NCCCC(O)(P(=O)(O)O)P(=O)(O)O [alendronate] |  |  |  |  |  |  |  |  |  | 377.8 ± 36.5 g | 0.18 ± 0.01 g | 0.38 ± 0.01 g | 206.1 ± 24.2 mg/mL | 2.7 ± 0.4 mm | 215.0 ± 10.2 μm | 36.1 ± 1.1 % | 281.2 ± 52.3 mg/mmol creatinine | 163.5 ± 24.0 U/L | 45.2 ± 14.8 mg/mmol creatinine |
